Test results: patent publication US20050260748A1, “Adult stem cells and uses thereof” (Michigan State University, priority 2004, published 2005)

Assays:
L1SV1A1 cells = test: Albumin expression by immunostaining in immortal liver cell line cultured with hepatocyte growth factor; assay type: cell-based, human; conditions: HGF 20 ng/ml in modified Eagle's MEM with high calcium; days after initiation of induction
Protocol: Both immunostaining and Western blotting were used to characterize gene expression for clonally derived liver cell culture. For immunostaining, the cells grown in 35 mm plates were washed with phosphate-buffered saline (PBS) and fixed with 4% paraformaldehyde in PBS. After rinsing with PBS, the cells were permeabilized (0.5% Triton® X-100, 2% BSA, and 0.05% NaN3 in PBS) for 10 minutes. The cells were then incubated with the primary antibody diluted to the required concentration in PBS/Triton® X-100/BSA overnight at room temperature. After rinsing with PBS, the cells were incubated with a secondary antibody conjugated with FITC or Cy3 in PBS/Triton/BSA buffer for 1 hour at room temperature. […] After thoroughly washing the cells with PBS, the phase image and fluorescence of cells was observed and recorded using a Nikon Elipse TE 300 microscope connected to a digital camera and computer. […]
Furthermore, cells of the immortal liver cell line L1SV1A1, derived from HL1-1 (described infra), that were cultured in the modified Eagle's MEM (Chang et al. (1981) Somat. Cell Genet. 7: 235-53) containing hepatocyte growth factor (HGF) (He et al. (2003) Differentiation 71: 281-90) (20 ng/ml) expressed the hepatocyte protein, albumin, as detected by immunostaining (FIGS. 21(a)-21(c)). […]

[1] = test system: mesenchymal stem cells (adipose stem cells); test: Effect of lovastatin on formation of calcified ECM during osteogenic differentiation of adipose stem cells; assay type: cell-based, human
Protocol: Adipose stem cells were tested for their ability to differentiate into osteocytes by culturing the stem cells in a medium composed of a modified MEM (Chang et al. (1981) Somatic Cell Genetics 7: 235) with 10% FBS and supplemented with 0.1 μM dexamethasone, 50 μM L-ascorbate-2-phosphate, and 10 mM […] disodium for about two to four weeks. Osteogenesis was identified by the presence of calcified extracellular matrix (ECM) in unstained cells (FIG. 32(a)) or using Von Kossa staining (FIG. 32(b)), the quantitative measurement of calcium in calcified ECM (Zuk et al. (2001) Tissue Engineering 7: 211), and the quantitative measurement of calcium in culture medium.
Osteoporosis is a disorder that occurs when the amount of bone removed from the skeleton by bone-resorbing osteoclasts exceeds the amount of bone formed by osteoblasts. Statins may decrease bone resorption by preventing osteoclast activation that is mediated by farnesyl-pp and geranylgeranyl-pp (Cruz et al., (2002) Cleveland Clinic J. Med. 69:277-288). Experiments were performed to test the effect of lovastatin on the formation of calcified ECM using adipocyte cells that were differentiated into osteocytes as described supra. […]

| Molecule | expression of the hepatocyte protein albumin (immunostaining) (L1SV1A1 cells) | formation of calcified ECM (microscopic inspection) ([1]; 0.2 μM lovastatin added with osteogenic medium, compared to induced control cultures without lovastatin) | total calcium ([1]; 0.2 μM lovastatin in osteogenic medium vs induced control, FIG. 35) |
| --- | --- | --- | --- |
| hepatocyte growth factor: hepatocyte growth factor (HGF), used as hepatocyte differentiation agent | detectable at 33 days but not at 22 days | – | – |
| CC[C@H](C)C(=O)O[C@H]1C[C@@H](C)C=C2C=C[C@H](C)[C@H](CC[C@@H]3C[C@@H](O)CC(=O)O3)[C@H]21 [lovastatin] | – | significantly less formation of calcified ECM | confirmed this observation |
